PubChem BioAssay AID2165 (The Scripps Research Institute Molecular Screening Center, 2009)
pIC50: −log10 of the molar value. “And” between values parts separate entries of the source, which are not always exact repeats. Equal values may be shown once. The source made the active and inactive calls. No stated cut-off is given here; in the data, active means IC50 below about 9 µM; inactive means the rest.

Target: Tyrosine-protein kinase JAK2 (Homo sapiens) (UniProt O60674)
Experiment: JAK2V617F kinase, IRF1 reporter and Ba/F3 cytotoxicity panel, late-stage follow-up, HEL and Ba/F3 cells (AID 2165)

Chain of Tyrosine-protein kinase JAK2 (Homo sapiens) (O60674 whole entry, looked up, change not shown): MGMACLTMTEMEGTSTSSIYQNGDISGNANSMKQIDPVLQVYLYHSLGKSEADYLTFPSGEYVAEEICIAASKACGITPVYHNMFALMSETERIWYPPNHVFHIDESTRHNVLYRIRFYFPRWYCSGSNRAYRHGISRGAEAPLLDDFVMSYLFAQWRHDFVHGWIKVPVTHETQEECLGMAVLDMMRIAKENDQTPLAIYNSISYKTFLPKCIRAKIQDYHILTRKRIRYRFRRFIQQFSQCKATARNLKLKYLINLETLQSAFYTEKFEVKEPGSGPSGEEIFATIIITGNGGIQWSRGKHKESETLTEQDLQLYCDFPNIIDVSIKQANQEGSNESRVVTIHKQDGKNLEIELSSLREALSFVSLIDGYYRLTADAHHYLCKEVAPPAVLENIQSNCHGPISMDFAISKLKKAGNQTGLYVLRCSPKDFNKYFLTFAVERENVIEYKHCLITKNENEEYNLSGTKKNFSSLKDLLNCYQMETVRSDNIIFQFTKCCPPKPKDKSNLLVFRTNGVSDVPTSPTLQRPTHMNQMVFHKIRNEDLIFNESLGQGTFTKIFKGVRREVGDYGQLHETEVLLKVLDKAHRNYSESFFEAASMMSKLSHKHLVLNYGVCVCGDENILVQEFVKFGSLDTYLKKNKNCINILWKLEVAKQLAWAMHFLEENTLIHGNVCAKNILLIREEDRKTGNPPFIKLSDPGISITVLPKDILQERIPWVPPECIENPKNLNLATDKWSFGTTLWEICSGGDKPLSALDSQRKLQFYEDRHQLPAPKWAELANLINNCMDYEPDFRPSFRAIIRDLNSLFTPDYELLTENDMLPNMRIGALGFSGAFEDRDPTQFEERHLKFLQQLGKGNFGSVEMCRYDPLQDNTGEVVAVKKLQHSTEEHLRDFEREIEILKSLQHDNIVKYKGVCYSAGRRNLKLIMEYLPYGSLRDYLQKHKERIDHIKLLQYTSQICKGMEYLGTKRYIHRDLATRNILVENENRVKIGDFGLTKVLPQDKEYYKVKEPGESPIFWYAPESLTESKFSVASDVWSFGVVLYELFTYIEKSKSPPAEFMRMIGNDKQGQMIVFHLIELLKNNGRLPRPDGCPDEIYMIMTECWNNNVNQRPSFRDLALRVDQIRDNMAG

SMILES	pIC50 (Ba/F3, irf1 reporter)	pIC50 (HEL, irf1 reporter)	pIC50 (JAK2V617F)	IC50 (JAK2V617F)	IC50 (HEL, irf1 reporter)	IC50 (Ba/F3, irf1 reporter)
COc1cc2ncnc(Nc3ccc(O)c(Br)c3)c2cc1OC	5.66	5.53	4.52	–	–	–
O=C1C=CCC(/C=C/c2ccccc2)O1 (stereo not given)	5.13	5.69	–	–	–	–
COc1cc2ncnc(Nc3ccccc3)c2cc1OC	–	5.23	–	> 40 µM (inactive)	–	–
Cc1[nH]c(=O)c(C(=O)C=Cc2ccccc2Cl)c2c1CCCC2	6.67	6.28	6.89	–	–	–
Cc1nc([N+](=O)[O-])c(Br)n1CC(=O)c1ccc2ccccc2c1	5.29	4.68	–	–	–	–
O=S(=O)(c1cccs1)N1CCN(c2ccc(O)cc2)CC1	5.15	4.68	–	–	–	–
O=C(CCl)NC(=O)NC12CC3CC(CC(C3)C1)C2	5.45	5.10	–	–	–	–
Cc1[nH]c(=O)c(C(=O)/C=C/c2ccccc2F)c2c1CCCC2	5.19 and 5.97	5.41 and 6.10	6.35	–	–	–
N#CC(C#N)=Cc1cc(O)c(O)c(I)c1	5.30	4.71	5.05	–	–	–
COc1ccc(Cl)cc1NC(=O)NC(C)c1ccncc1 (stereo not given)	–	–	–	> 40 µM (inactive)	> 40 µM (inactive)	–
COc1cccc(Nc2ncnc3cc(OC)c(OC)cc23)c1	–	5.45	–	> 40 µM (inactive)	–	–
CN(c1ccccc1)S(=O)(=O)c1cccc(C(=O)NCCc2ccc(O)c(O)c2)c1	5.52	5.53	–	–	–	–
Oc1ccc(/C=N/N2CCN(C3c4ccccc4-c4ccccc43)CC2)cc1O	5.61	5.29	–	–	–	–
O=C(COc1ccccc1)Nc1ncccn1	–	–	–	> 40 µM (inactive)	> 40 µM (inactive)	–
COc1cc(C=C(C#N)C(N)=O)cc(CSc2ccccc2)c1O	–	–	–	> 40 µM (inactive)	> 40 µM (inactive)	> 40 µM (inactive)
O=C(O)c1[nH]c(=O)[nH]c(=O)c1F	–	–	–	–	> 40 µM (inactive)	> 40 µM (inactive)
O=C(Nc1cccc2c1[nH]c1ccccc12)C(F)(F)F	4.72	5.43	–	–	–	–
CC(C)[C@@H](CO)Nc1nc(Nc2cccc(Cl)c2)c2ncn(C(C)C)c2n1	6.08	5.95	6.04	–	–	–
Clc1cccc(Nc2ncnc3ccccc23)c1	–	–	–	> 40 µM (inactive)	> 40 µM (inactive)	–
COc1ccc2nc(C)cc(Sc3nc4ccccc4s3)c2c1	5.53	4.96	–	–	–	–
O=C(/C=C/c1ccc(O)c(O)c1)c1ccc(S(=O)(=O)N2CCCCCC2)cc1	5.63	–	–	–	> 40 µM (inactive)	–

SMILES	pIC50 (Ba/F3, irf1 reporter)	pIC50 (HEL, irf1 reporter)	pIC50 (JAK2V617F)	IC50 (JAK2V617F)	IC50 (HEL, irf1 reporter)	IC50 (Ba/F3, irf1 reporter)
COc1ccc(OC)c(NS(=O)(=O)c2ccc(SC)cc2)c1	4.64	–	–	–	> 40 µM (inactive)	–
O=C(C=C=Nc1ccccc1)C(=O)N=C=Cc1ccccc1	5.88	4.85	–	–	–	–
O=C(CCl)N=c1sccn1Cc1ccc(Cl)cc1Cl	5.22	5.65	–	–	–	–
O=C(CSc1nnnn1-c1ccc(F)cc1)c1ccc(O)c(O)c1	4.91	4.78	–	–	–	–
COc1cc2ncnc(Nc3ccc(F)c(F)c3)c2cc1OC	–	–	–	> 40 µM (inactive)	> 40 µM (inactive)	–
O=S(=O)(c1cnc(Cl)c(Br)c1)N1CCc2ccccc21	5.18	–	–	–	> 40 µM (inactive)	–
COc1cc2ncnc(Nc3cccc(Br)c3)c2cc1OC	5.88	5.50	5.31	–	–	–
O=C(/C(=N/N=C/c1ccc(O)c(O)c1)c1ccccc1)c1ccccc1	5.18	5.02	–	–	–	–
COc1ccccc1-c1nnc(Sc2nc([N+](=O)[O-])nn2C)o1	4.45	4.87	–	–	–	–
O=C(CCl)NCc1cc(-c2ccc(Cl)cc2)no1	5.26	5.11	–	–	–	–
COc1cc2ncnc(NC3CCCCC3)c2cc1OC	–	5.28	–	> 40 µM (inactive)	–	–
CC1CCCC(NC(=O)NC(=O)CCl)C1C (stereo not given)	5.50	4.51	–	–	–	–
Cc1cccc(OCC(=O)Nc2cc(C)c(C)cc2O)c1	–	–	–	> 40 µM (inactive)	–	–
O=C(OCn1ncc(Cl)c(Cl)c1=O)c1ccc(F)cc1	5.71	5.10	–	–	–	–
COc1cc2ncnc(N[C@H](C)c3ccccc3)c2cc1OC	–	4.88	5.50	–	–	–
Cc1ccc(NC(=O)C(=Cc2ccc(C(=O)O)cc2)C(=O)Nc2ccc(C)cc2C)c(C)c1	5.54	5.55	–	–	–	–
Cc1ccc(O)c(NC(=O)COc2ccccc2Cl)c1	–	–	7.61	–	–	–
N#C/C(=C\c1ccc(O)c(O)c1)C(=O)NCCCCc1ccccc1	6.60	5.48	6.12	–	–	–
Cc1nn(Cc2ccc(Cl)cc2Cl)c(C)c1NC(=O)CCl	5.06	5.07	–	–	–	–
N#CC(=Cc1ccc(O)c(O)c1)C(=S)NCc1ccccc1	6.21	–	5.72	–	> 40 µM (inactive)	–
Cc1nc2c(=O)n(C)c(=O)n(C)c2nc1Cl	5.70	4.80	–	–	–	–

SMILES	pIC50 (Ba/F3, irf1 reporter)	pIC50 (HEL, irf1 reporter)	pIC50 (JAK2V617F)	IC50 (JAK2V617F)	IC50 (HEL, irf1 reporter)	IC50 (Ba/F3, irf1 reporter)
O=C(C=Cc1ccccc1F)c1c(-c2ccccc2)c2ccccc2[nH]c1=O	6.41	6.41	6.41	–	–	–
COc1ccc(C=CC(=O)c2c3c(c(C)[nH]c2=O)CCCC3)cc1	–	–	5.16	–	> 40 µM (inactive)	> 40 µM (inactive)
COc1cc2c(cc1OC)-c1cc(N3CCCc4ccccc43)nc(=O)n1CC2	–	–	–	–	> 40 µM (inactive)	> 40 µM (inactive)
CC(C)(C)c1cc(NC(=O)CCl)n(-c2ccccc2)n1	5.07	5.00	–	–	–	–
COc1cc2ncnc(Nc3cccc(Cl)c3)c2cc1OC	–	–	–	> 40 µM (inactive)	> 40 µM (inactive)	–
COCCOc1cc2ncnc(Nc3cccc(C#Cc4ccc(O)cc4)c3)c2cc1OCCOC	–	7.02	5.56	–	–	–
COc1cccc(/C=N/NC(=O)c2[nH]c(C)c(C(=O)N/N=C/c3cccc(OC)c3O)c2C)c1O	4.70	5.01	–	–	–	–
Cc1[nH]c(=O)c(C(=O)C=Cc2ccc(I)cc2)c2c1CCCC2	6.09	4.95	–	> 40 µM (inactive)	–	–
Cc1ccc(O)c(NC(=O)COc2ccccc2C)c1	–	–	–	> 40 µM (inactive)	–	–
CN(C)C(=S)SSC(=S)N(C)C	5.62	4.87	–	–	–	–
C=CCNc1ncnc2cc(OC)c(OC)cc12	–	–	–	> 40 µM (inactive)	> 40 µM (inactive)	–
Cc1oc2c(O)c(O)ccc2c(=O)c1-c1cnn(-c2ccccc2)c1	4.89	5.07	–	–	–	–
c1ccc2c(CN3CCCCCC3)c[nH]c2c1	4.84	4.80	–	–	–	–
Cc1ccc(Nc2nc(N)nc(CCl)n2)cc1	4.90	5.25	–	–	–	–
COc1ccc(Nc2ccc3c(c2)=NC2(CCCCC2)[N+]=3[O-])cc1	5.25	5.29	–	–	–	–
Cc1cccc(CS(=O)(=O)c2nnc([C@H](Cc3ccccc3)NC(=O)OC(C)(C)C)o2)c1	5.86	4.94	–	–	–	–
Cc1cccc(OCC(=O)Nc2cc(C)ccc2O)c1	5.41	–	–	–	> 40 µM (inactive)	–
Cc1[nH]c(=O)c(C(=O)C=Cc2ccc(Cl)cc2)c2c1CCCC2	5.97	6.02	5.58	–	–	–
O=c1cnn([C@@H]2O[C@H](CO)[C@@H](O)[C@H]2O)c(=O)[nH]1	–	–	–	–	> 40 µM (inactive)	> 40 µM (inactive)
COc1cc2ncc(-c3ccccc3)nc2cc1OC	–	6.16	–	> 40 µM (inactive)	–	> 40 µM (inactive)
